Laboratory results reported in PubChem BioAssay (NCI).
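Test compounds were applied to cells in 96-well plates for 48 hours at 5 doses. At the GI50, growth is halved. TGI: concentration producing complete growth inhibition.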

How the values were obtained:
Assay in all cases: inhibition of tumour cell growth, NCI panel, 48 h
[1] = tested on: SK-OV-3 ovarian
[2] = tested on: HCT-15 colon
[3] = tested on: DU-145 prostate
[4] = tested on: RPMI-8226 leukemia
[5] = tested on: HL-60(TB) leukemia
[6] = tested on: CCRF-CEM leukemia
[7] = tested on: SF-268 CNS
[8] = tested on: SN12C renal
[9] = tested on: SNB-75 CNS
[10] = tested on: TK-10 renal

O=C1/C(=C\c2cccn2Cc2ccccc2)c2ccccc2N1c1c(Cl)cccc1Cl
GI50 [1]: > 100 µM
TGI [1]: > 100 µM
GI50 [2]: 0.885 µM
TGI [2]: > 100 µM
GI50 [3]: > 100 µM
TGI [3]: > 100 µM
GI50 [4]: 1.3 µM
TGI [4]: > 100 µM
GI50 [5]: > 100 µM
TGI [5]: > 100 µM
GI50 [6]: > 100 µM
TGI [6]: > 100 µM
GI50 [7]: > 100 µM
TGI [7]: > 100 µM
GI50 [8]: > 100 µM
TGI [8]: > 100 µM
GI50 [9]: > 22.9 µM
TGI [9]: > 100 µM
GI50 [10]: 0.978 µM
TGI [10]: > 100 µM

COc1cc2c(cc1OC)C13CCN4CC5=CCOC6CC(=O)N2C1C6C5CC43O (stereo not given)
TGI [1]: > 100 µM
TGI [2]: > 100 µM
TGI [3]: > 100 µM
TGI [4]: > 100 µM
TGI [5]: > 100 µM
TGI [6]: > 100 µM
TGI [7]: > 100 µM
TGI [8]: > 100 µM
TGI [9]: > 100 µM
TGI [10]: > 100 µM

Fc1ccc(Nc2cc(-n3nnc4ccccc43)nc3ccccc23)cc1
GI50 [1]: 8.41 µM
TGI [1]: > 100 µM
GI50 [2]: > 100 µM
TGI [2]: > 100 µM
GI50 [3]: > 56.2 µM
TGI [3]: > 100 µM
GI50 [4]: 19.3 µM
TGI [4]: > 100 µM
GI50 [5]: > 100 µM
TGI [5]: > 100 µM
GI50 [6]: > 100 µM
TGI [6]: > 100 µM
GI50 [7]: > 40.1 µM
TGI [7]: > 66.3 µM
GI50 [8]: 30 µM
TGI [8]: > 69.3 µM
GI50 [9]: 14.1 µM
TGI [9]: 45.8 µM
GI50 [10]: 23.5 µM
TGI [10]: > 77.8 µM
